Measurements: ChEMBL document CHEMBL1201862, “PubChem BioAssay data set” (2004)
One block for each compound: values may come before it. Activity calls are given as the source filed them.

Columns and labels:
[1] = NIH-3T3 fibroblast cytotoxicity, dose response, cytotoxicity control, cell-based, fluorescence, Alamar Blue, secondary assay (AID 2327); assay type: functional;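 further: NIH-3T3 mouse fibroblasts cultured with fluconazole at 8 µg/mL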
[2] = target: T1, Histone-lysine N-methyltransferase NSD2 (Homo sapiens, UniProt O96028); assay type: biochemical
T1 sequence (O96028 whole entry): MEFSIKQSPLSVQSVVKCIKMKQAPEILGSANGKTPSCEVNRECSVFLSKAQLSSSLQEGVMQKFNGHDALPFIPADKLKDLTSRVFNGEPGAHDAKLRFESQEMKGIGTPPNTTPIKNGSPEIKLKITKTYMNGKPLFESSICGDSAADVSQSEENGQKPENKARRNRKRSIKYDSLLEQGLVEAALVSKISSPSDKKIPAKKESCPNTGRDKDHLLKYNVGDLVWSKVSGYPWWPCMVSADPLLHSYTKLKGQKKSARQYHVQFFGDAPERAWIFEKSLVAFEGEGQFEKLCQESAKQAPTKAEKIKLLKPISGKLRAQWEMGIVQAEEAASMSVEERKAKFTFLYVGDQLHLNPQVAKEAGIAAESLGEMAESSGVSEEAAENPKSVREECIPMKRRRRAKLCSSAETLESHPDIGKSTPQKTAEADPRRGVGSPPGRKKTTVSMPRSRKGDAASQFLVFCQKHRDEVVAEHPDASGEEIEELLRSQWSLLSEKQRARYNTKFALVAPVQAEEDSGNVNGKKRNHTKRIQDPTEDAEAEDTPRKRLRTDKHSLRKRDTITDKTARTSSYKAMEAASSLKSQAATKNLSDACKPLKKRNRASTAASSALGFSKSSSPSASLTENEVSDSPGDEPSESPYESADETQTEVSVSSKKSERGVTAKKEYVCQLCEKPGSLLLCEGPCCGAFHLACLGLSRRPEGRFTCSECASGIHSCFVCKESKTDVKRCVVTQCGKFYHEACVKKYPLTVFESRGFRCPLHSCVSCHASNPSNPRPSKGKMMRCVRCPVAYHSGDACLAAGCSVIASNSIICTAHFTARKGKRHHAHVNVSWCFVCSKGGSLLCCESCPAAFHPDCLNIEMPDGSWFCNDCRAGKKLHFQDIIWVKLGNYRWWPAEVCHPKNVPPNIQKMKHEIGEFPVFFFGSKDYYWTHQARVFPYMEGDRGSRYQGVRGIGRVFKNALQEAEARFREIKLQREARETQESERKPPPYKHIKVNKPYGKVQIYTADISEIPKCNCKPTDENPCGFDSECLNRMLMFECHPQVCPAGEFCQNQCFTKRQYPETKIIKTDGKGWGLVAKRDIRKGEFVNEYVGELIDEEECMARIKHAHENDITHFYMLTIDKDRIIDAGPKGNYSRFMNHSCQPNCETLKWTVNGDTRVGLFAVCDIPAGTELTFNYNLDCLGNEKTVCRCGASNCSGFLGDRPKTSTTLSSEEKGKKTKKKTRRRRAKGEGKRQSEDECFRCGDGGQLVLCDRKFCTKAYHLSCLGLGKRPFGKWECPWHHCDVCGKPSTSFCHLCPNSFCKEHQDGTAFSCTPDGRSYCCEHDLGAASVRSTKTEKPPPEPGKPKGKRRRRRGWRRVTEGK

[3] = target: Serine/threonine-protein kinase D3 (Homo sapiens, UniProt O94806); assay type: functional;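 further: determined within a kinase panel screen, with PRKCN as the panel member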
[4] = target: Calcium/calmodulin-dependent protein kinase kinase 2 (Homo sapiens, UniProt Q96RR4); experiment: Navigating the Kinome. Panel member name: CAMKK2; assay type: functional
[5] = target: Cell division cycle 7-related protein kinase (Homo sapiens, UniProt O00311); assay type: functional;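 further: value obtained from a kinome-wide kinase panel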
[6] = target: Phosphorylase b kinase gamma catalytic chain, liver/testis isoform (Homo sapiens, UniProt P15735); assay type: functional;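 further: PHKG2 measured as one member of a kinome-wide kinase panel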
[7] = target: Tyrosine-protein kinase Fer (Homo sapiens, UniProt P16591); assay type: functional;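 further: FER tested as one member of a kinome panel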
[8] = target: Receptor tyrosine-protein kinase erbB-4 (Homo sapiens, UniProt Q15303); assay type: functional;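 further: ERBB4 member of a kinome-wide kinase profiling panel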
[9] = target: Mitogen-activated protein kinase 8 (Homo sapiens, UniProt P45983); assay type: functional;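 further: value comes from one member of a kinome-wide kinase profiling panel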
[10] = target: Tyrosine-protein kinase Fyn (Homo sapiens, UniProt P06241); assay type: functional
[11] = target: Cyclin-dependent kinase 9 (Homo sapiens, UniProt P50750); assay type: functional;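 further: value from the CDK9 entry of a kinome-spanning kinase panel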
[12] = target: Calcium/calmodulin-dependent protein kinase type 1 (Homo sapiens, UniProt Q14012); assay type: functional
Insulin receptor = Insulin receptor (Homo sapiens, UniProt P06213); assay type: functional;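 further: insulin receptor kinase tested as one member of a kinome-wide kinase panel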
[13] = target: Serine/threonine-protein kinase 17A (Homo sapiens, UniProt Q9UEE5); assay type: functional
[14] = target: Casein kinase I isoform gamma-1 (Homo sapiens, UniProt Q9HCP0); assay type: functional;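 further: measured as the CSNK1G1 member of a kinome profiling panel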
[15] = target: Tyrosine-protein kinase Blk (Homo sapiens, UniProt P51451); assay type: functional;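 further: obtained as one member of a kinome-wide kinase assay panel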
[16] = target: Glycogen synthase kinase-3 alpha (Homo sapiens, UniProt P49840); assay type: functional;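 further: GSK3A result taken from a broad kinome-wide kinase panel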
[17] = target: Serine/threonine-protein kinase SIK2 (Homo sapiens, UniProt Q9H0K1); experiment: Navigating the Kinome. Panel member name: SIK2; assay type: functional
SRSF protein kinase 1 = SRSF protein kinase 1 (Homo sapiens, UniProt Q96SB4); assay type: functional;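 further: measured as one member of a kinome-wide kinase profiling panel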
[18] = target: Dual specificity protein kinase CLK2 (Homo sapiens, UniProt P49760); assay type: functional
[19] = target: Vascular endothelial growth factor receptor 2 (Homo sapiens, UniProt P35968); assay type: functional
[20] = target: Tyrosine-protein kinase ABL1 (Homo sapiens, UniProt P00519); assay type: functional
[21] = target: ALK tyrosine kinase receptor (Homo sapiens, UniProt Q9UM73); assay type: functional;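 further: ALK tested as one member of a kinase panel screen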
[22] = target: Mitogen-activated protein kinase 1 (Homo sapiens, UniProt P28482); assay type: functional
[23] = target: Serine/threonine-protein kinase pim-2 (Homo sapiens, UniProt Q9P1W9); assay type: functional;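 further: value comes from a broad kinase panel profiling study in which PIM2 was one of the panel members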
Serine/threonine-protein kinase pim-2, sequence (Q9P1W9 whole entry): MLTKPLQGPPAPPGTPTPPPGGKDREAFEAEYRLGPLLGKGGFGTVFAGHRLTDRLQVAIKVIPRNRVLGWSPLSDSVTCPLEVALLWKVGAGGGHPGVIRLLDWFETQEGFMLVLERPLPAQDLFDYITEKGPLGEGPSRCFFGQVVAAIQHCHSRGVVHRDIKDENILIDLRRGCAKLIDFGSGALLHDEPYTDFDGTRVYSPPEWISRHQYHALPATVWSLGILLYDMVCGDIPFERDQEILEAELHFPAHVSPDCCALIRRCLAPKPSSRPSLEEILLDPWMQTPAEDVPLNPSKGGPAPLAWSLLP

Vascular endothelial growth factor receptor 2, sequence (P35968 whole entry): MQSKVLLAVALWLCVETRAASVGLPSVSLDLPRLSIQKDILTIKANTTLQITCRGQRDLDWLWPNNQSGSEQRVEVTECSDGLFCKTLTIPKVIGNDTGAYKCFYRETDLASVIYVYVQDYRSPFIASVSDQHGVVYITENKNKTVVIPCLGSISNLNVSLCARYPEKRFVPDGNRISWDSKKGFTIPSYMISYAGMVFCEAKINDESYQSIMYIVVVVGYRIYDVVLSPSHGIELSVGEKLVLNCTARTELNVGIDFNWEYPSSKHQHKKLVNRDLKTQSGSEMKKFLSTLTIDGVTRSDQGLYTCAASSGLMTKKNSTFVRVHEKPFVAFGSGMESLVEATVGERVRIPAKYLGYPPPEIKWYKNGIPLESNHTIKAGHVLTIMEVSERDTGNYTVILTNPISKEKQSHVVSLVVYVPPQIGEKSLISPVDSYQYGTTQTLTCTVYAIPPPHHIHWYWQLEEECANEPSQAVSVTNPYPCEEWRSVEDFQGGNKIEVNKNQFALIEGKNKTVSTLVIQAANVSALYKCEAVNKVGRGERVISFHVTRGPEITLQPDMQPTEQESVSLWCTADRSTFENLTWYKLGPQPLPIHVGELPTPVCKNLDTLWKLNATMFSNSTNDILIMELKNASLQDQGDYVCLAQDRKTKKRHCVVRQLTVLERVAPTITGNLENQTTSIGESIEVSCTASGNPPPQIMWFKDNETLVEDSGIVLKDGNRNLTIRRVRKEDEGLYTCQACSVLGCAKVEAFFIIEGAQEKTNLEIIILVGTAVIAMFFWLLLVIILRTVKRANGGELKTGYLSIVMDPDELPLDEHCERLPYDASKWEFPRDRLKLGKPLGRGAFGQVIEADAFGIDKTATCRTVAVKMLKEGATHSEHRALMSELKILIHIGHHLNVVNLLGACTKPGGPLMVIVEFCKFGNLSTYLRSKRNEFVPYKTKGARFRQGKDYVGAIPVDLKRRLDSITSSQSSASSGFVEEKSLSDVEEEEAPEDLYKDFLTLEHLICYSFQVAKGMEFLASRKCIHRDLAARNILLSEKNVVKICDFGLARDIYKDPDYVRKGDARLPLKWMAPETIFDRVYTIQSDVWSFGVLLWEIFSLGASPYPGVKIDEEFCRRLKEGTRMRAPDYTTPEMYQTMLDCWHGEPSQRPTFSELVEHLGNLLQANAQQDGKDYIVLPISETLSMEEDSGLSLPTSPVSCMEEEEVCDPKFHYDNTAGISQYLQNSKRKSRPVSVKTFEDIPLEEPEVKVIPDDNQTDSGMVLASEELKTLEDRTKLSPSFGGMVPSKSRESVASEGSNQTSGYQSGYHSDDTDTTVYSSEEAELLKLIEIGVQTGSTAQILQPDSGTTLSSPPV
Cyclin-dependent kinase 9, sequence (P50750 whole entry): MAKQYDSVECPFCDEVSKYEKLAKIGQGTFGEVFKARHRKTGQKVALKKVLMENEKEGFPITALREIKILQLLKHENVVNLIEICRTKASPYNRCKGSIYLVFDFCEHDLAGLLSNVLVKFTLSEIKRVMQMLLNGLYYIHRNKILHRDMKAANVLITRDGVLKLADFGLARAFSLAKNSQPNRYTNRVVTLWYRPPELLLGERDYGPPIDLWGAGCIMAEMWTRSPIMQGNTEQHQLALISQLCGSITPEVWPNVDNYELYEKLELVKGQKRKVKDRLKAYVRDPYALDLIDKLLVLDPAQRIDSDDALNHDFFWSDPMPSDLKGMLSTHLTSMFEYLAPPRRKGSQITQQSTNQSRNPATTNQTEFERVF
SRSF protein kinase 1, sequence (Q96SB4 whole entry): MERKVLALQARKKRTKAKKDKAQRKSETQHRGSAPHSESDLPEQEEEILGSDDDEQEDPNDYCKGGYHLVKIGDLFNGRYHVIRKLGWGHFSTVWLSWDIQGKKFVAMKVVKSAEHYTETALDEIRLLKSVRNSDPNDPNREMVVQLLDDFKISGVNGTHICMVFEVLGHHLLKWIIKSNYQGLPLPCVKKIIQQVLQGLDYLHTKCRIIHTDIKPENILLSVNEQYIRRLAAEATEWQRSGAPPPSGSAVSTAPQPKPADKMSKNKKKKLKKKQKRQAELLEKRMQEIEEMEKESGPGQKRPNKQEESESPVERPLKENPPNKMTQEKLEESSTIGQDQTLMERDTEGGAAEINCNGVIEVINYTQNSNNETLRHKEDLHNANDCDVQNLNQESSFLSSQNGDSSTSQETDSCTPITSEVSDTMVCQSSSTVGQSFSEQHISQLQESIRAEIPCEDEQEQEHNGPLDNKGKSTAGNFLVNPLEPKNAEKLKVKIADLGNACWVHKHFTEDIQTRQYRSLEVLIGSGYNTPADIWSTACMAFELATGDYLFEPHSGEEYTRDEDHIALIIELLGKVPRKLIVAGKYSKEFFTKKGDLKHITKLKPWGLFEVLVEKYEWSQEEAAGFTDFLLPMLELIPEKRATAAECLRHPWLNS
Mitogen-activated protein kinase 8, sequence (P45983 whole entry): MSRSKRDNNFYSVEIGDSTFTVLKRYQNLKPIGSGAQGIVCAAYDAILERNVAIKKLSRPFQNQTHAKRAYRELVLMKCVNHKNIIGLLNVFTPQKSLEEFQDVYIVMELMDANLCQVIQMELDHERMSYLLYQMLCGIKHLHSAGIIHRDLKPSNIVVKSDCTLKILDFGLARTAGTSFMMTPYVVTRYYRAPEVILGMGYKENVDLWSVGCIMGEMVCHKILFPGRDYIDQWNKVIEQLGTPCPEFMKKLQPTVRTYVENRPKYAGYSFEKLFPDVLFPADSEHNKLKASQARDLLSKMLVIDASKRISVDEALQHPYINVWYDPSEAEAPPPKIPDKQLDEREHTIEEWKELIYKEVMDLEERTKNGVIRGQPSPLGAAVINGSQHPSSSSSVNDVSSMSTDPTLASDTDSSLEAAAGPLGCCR
Serine/threonine-protein kinase SIK2, sequence (Q9H0K1 whole entry): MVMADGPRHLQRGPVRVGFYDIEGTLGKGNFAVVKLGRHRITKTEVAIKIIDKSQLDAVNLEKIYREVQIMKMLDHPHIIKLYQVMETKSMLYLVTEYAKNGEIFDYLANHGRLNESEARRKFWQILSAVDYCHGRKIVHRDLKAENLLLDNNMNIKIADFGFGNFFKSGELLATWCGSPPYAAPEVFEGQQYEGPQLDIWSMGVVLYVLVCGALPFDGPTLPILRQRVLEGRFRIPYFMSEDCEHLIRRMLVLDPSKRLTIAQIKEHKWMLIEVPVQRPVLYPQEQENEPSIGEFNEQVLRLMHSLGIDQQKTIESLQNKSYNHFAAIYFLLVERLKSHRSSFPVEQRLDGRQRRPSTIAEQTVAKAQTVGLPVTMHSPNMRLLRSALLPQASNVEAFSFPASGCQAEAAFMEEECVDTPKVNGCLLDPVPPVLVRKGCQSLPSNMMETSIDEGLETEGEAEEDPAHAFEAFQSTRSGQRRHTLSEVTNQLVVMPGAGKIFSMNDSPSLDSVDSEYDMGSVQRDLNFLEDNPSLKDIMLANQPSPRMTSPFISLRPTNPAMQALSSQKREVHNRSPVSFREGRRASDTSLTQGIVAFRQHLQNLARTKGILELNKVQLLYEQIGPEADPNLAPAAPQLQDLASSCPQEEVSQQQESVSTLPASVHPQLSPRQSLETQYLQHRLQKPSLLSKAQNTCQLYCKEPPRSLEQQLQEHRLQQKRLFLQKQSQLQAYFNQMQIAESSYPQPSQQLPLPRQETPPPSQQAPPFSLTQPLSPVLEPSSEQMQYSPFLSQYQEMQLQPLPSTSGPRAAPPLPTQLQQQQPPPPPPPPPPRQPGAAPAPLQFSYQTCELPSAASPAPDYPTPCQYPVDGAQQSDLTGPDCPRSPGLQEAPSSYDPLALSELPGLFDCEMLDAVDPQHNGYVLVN
Calcium/calmodulin-dependent protein kinase kinase 2, sequence (Q96RR4 whole entry): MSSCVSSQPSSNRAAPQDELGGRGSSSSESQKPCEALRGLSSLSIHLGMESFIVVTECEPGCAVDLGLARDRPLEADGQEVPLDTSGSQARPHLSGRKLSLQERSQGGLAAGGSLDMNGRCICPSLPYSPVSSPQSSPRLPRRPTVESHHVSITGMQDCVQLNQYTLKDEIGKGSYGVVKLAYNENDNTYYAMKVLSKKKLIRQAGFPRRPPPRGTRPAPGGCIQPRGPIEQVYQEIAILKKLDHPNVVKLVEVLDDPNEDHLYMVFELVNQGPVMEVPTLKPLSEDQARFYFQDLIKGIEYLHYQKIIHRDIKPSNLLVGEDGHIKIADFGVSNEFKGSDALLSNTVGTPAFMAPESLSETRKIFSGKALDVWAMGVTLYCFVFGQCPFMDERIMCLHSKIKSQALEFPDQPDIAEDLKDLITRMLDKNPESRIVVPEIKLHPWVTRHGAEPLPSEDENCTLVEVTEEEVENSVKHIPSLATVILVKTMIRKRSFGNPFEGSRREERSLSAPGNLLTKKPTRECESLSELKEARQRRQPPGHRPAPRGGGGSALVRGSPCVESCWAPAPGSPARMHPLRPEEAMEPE
Mitogen-activated protein kinase 1, sequence (P28482 whole entry): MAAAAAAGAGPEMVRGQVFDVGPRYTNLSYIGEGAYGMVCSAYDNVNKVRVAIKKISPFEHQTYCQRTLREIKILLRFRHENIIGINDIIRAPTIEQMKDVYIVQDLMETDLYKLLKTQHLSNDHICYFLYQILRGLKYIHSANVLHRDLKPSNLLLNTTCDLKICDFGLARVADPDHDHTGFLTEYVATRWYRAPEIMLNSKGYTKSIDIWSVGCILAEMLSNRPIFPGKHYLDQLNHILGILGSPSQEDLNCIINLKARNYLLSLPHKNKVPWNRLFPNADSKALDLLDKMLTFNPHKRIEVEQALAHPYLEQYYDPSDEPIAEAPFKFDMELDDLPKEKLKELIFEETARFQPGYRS

Compound: CCCn1nc([N+](=O)[O-])c(C(C#N)c2nc3ccccc3s2)c(Cl)c1=O (stereo not given)
- EC50 [1]: > 160 µM (inactive)
- AC50 [2]: > 20 µM (inactive)

- Ki [3]: 0.398 µM (active)
- Ki [4]: > 2.51 µM (inactive)
- Ki [5]: 0.0126 µM (active)
- Ki [6]: 0.126 µM (active)
- Ki [7]: > 1.58 µM (inactive)
- Ki [8]: > 3.98 µM (inactive)
- Ki [9]: > 2.51 µM (inactive)
- Ki [10]: > 3.16 µM (inactive)
- Ki [11]: > 1.58 µM (inactive)
- Ki [12]: 3.16 µM (active)
- Ki (Insulin receptor): > 5.01 µM (inactive)
- Ki [13]: 0.0398 µM (active)
- Ki [14]: 2.51 µM (active)
- Ki [15]: > 1.58 µM (inactive)
- Ki [16]: 0.126 µM (active)
- Ki [17]: 0.251 µM (active)
- Ki (SRSF protein kinase 1): 2 µM (active)
- Ki [18]: > 2.51 µM (inactive)
- Ki [19]: > 5.01 µM (inactive)
- Ki [20]: > 2.51 µM (inactive)
- Ki [21]: > 3.98 µM (inactive)
- Ki [22]: 5.01 µM (active)
- Ki [23]: 0.1 µM (active)
Compound: NCCCn1cc(-c2cc(-c3cc4ccccc4s3)c3[nH]ncc3c2)c2nc(N)ncc21
